In one experiment the target is T1, human ETA receptors (Homo sapiens, UniProt P25101).
T1 construct: made in house
T1 sequence (P25101 21-427): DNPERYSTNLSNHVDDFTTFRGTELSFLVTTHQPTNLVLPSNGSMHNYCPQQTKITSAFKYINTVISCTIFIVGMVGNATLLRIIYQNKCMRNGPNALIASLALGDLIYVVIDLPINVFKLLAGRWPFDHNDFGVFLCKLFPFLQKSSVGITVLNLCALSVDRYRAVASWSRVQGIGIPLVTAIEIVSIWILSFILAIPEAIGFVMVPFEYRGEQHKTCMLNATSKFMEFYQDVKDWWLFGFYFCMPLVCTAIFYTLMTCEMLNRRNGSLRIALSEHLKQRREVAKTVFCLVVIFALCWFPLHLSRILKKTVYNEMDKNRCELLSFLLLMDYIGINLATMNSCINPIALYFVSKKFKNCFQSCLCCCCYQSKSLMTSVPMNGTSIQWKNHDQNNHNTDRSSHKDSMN
The experiment is described as follows: Inhibition of Endothelin Binding to Recombinant ETA Receptors. The following applies: inhibition of 50% of the specific binding of 125I-endothelin (20 pM), baculovirus-insect cell membranes. On the procedure:
I: Inhibition of Endothelin Binding to Recombinant ETA Receptors
A cDNA coding for human ETA receptors of human placenta was cloned (M. Adachi, Y.-Y. Yang, Y. Furuichi and C. Miyamoto, BBRC 180, 1265-1272) and expressed in the baculovirus-insect cell system. Baculovirus-infected insect cells from a 23 l fermenter are centrifuged off (3000×g, 15 minutes, 4° C.) 60 hours after the infection, re-suspended in Tris buffer (5 mM, pH 7.4, 1 mM MgCl2) and again centrifuged. After a further re-suspension and centrifugation the cells are suspended in 800 ml of the same buffer and […] at -120° C. The cells disintegrate when the suspension in this hypotonic buffer mixture is thawed. After a repeated freeze-drying/thawing cycle the suspension is homogenized and centrifuged (25000×g, 15 minutes, 4° C.). After suspension in Tris buffer (75 mM, pH 7.4, 25 mM MgCl2, 250 mM saccharose) 1 ml aliquots (protein content about 3.5 mg/ml) are stored at -85° C.
(§1) For the binding assay, the freeze-dried membrane preparations are thawed and, after centrifugation at 20° C. and 25000 g for 10 minutes, re-suspended in assay buffer (50 mM Tris buffer, pH 7.4, containing 25 mM MnCl2, 1 mM EDTA and 0.5% bovine serum albumin). 100 μl of this membrane suspension containing 5 μg of protein are incubated with 50 μl of ^125 I-endothelin (specific activity 2200 Ci/mMol) in assay buffer (25000 cpm, final concentration 20 pM) and 100 μl of assay buffer containing varying concentrations of test compound. The incubation is carried out at 20° C. for 2 hours or at 4° C. for 24 hours. The separation of free and membrane-bound radio-ligands is carried out by filtration over a glass fibre filter.
(§2) The inhibitory activity on ETA and ETB receptors of compounds of formula I determined in these test procedures is given in Table 1 as the IC50, i.e. as the concentration [μM] which is required to inhibit 50% of the specific binding of ^125 I-endothelin.

Another experiment deals with T2, ETB receptor (Homo sapiens, UniProt P24530).
T2 construct: Human placenta is homogenized in 5 mM Tris buffer; from tissue; host or cells: human placenta membranes
T2 sequence (P24530 27-442): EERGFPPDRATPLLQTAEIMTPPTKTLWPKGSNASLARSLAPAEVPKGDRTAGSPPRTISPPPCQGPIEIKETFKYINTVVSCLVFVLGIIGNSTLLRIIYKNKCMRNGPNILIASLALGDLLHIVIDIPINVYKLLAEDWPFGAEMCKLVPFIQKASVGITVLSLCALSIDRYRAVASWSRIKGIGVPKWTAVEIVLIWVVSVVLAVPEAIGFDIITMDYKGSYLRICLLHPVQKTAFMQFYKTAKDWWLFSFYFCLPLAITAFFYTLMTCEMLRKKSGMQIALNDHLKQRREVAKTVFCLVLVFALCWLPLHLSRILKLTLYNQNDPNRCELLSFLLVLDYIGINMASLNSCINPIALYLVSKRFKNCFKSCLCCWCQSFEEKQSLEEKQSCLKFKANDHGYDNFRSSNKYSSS
The experiment is described as follows: Inhibition of Endothelin Binding to Human Placenta Membranes (ETB receptor). As to conditions: inhibition of 50% of the specific binding of 125I-endothelin (20 pM). On the procedure: II: Inhibition of Endothelin Binding to Human Placenta Membranes (ETB receptor) (see. Life Sci 44:1429 (1989))
Human placenta is homogenized in 5 mM Tris buffer, pH 7.4, which contains 1 mM MgCl2 and 250 mM sucrose. The homogenizate is centrifuged at 4° C. and 3000 g for 15 minutes, the supernatant containing the plasma membrane fraction is centrifuged at 72000 g for 30 minutes and the precipitate is washed with 75 mM Tris buffer, pH 7.4, which contains 25 mM MgCl2. Thereafter, precipitate obtained from in each case 10 g of original tissue is suspended in 1 ml of 75 mM Tris buffer, pH 7.4, containing 25 mM MgCl2 and 250 mM sucrose, and freeze-dried at -20° C. in 1 ml aliquots.
as §1, with “containing 35” for “containing 5”, “with” for “with 50”
as §2

In the next experiment the test system is Isolated Rat Aorta Rings. The experiment is described as follows: Inhibition of Endothelin-Induced Contractions in Isolated Rat Aorta Rings. It counts as cell-based, rat (Wistar-Kyoto). The following applies: for Kb: Rattus norvegicus, Table 2, text calls these the pA2 values, endothelin-1 contraction, endothelium removed, 37° C, 10 min preincubation, read-out: Dosage ratio (switch to the right) (converted). On the procedure:
III. Inhibition of Endothelin-Induced Contractions in Isolated Rat Aorta Rings
Rings with a length of 5 mm were cut out from the thorax aorta of adult Wistar-Kyoto rats. The endothelium was removed by lightly rubbing the internal surface. Each ring was immersed at 37° C. in 10 ml of Krebs-Henseleit solution in an isolated bath while gassing with 95% O2 and 5% CO2. The isometric stretching of the rings was measured. The rings were stretched to a pretension of 3 g. After incubation for 10 minutes with the test compound or vehicle cumulative dosages of endothelin-1 were added. The activity of the test compound was ascertained by the observed shift to the right of the dosage-activity curve of endothelin-1 in the presence of different concentrations of antagonist. This shift to the right (or "dose ratio", DR) corresponds to the quotient from the EC50 values of endothelin-1 in the presence and in the absence of antagonist, with the EC50 value denoting the endothelin concentration required for a half-maximum contraction.
The corresponding PA2 value, which is a measure of the activity of the test compound, was calculated using a computer programme according to the following equation from the "dose ratio" DR for each individual dosage-activity curve.
pA2 =log(DR-1)-log(antagonist-concentration)
The EC50 of endothelin in the absence of test compounds is 0.3 nM.

Seven molecules from patent US5962682A, “Aryl- and hetaryl-sulfonamide derivatives, their preparation and their use as endothelin antagonists” (Hoffmann-La Roche Inc., priority 1994, dated 1999) can be followed below.

Bounds are passed on as bounds.

Broadly, the IC50 is the concentration that inhibits the measured activity by half. What is called EC50 is the concentration at which the effect is half-maximal.

Regarding `COc1cccc(Oc2c(NS(=O)(=O)c3ccc(SC)cc3)cc(C(=O)Nc3ccccc3)cc2OCCO)c1` [Example 105, 3-(2-hydroxy-ethoxy)-4-(3-methoxy-phenoxy)-5-(4-methylsulphanyl-benzenesulphonyl-amino)-N-phenyl-benzamide], the IC50 on human ETA receptors is over 100000 nM; at ETB receptor, 15 nM.

As to `COc1ccccc1Oc1c(NS(=O)(=O)c2ccc(C(C)C)cn2)cc(C(=O)N2CCN(C)CC2)cc1OCCOC(=O)Nc1ccccn1` [Example 33, pyridin-2-yl-carbamic acid 2-[3-(5-isopropyl-pyridine-2-sulphonylamino)-2-(2-methoxy-phenoxy)-5-(4-methyl-piperazine-1-carbonyl)-phenoxy]-ethyl ester], the values for the IC50 at human ETA receptors and at ETB receptor were 10 nM and 440 nM, respectively. The Kb in the experiment with Isolated Rat Aorta Rings was 39.8 nM.

On to `COc1cccc(Oc2c(NS(=O)(=O)c3ccc(C(C)(C)C)cc3)cc(C(=O)Nc3ccccc3)cc2OCCO)c1` [Example 89, 3-(4-tert-butylbenzenesulphonylamino)-5-(2-hydroxy-ethoxy)-4-(3-methoxy-phenoxy)-N-phenyl-benzamide], for which the IC50 at human ETA receptors is over 100000 nM; on ETB receptor it was 65 nM.

Consider “endothelin: endothelin-1, contracting agonist added in cumulative dosages to rat aorta rings [reference compound]”, for which, in the experiment on Isolated Rat Aorta Rings (half-maximum contraction, absence of test compounds), the EC50 amounted to 0.3 nM.

As for `COc1ccccc1Oc1c(NS(=O)(=O)c2ccc(C(C)C)cn2)cc(C(=O)N2CCOCC2)cc1OCCOC(=O)Nc1ccccn1` [Example 31, pyridin-2-yl-carbamicacid 2-[3-(5-isopropyl-pyridine-2-sulphonylamino)-2-(2-methoxy-phenoxy)-5(morpholine-4-carbonyl)-phenoxy]-ethyl ester], the IC50 at human ETA receptors was found to be 6 nM; at ETB receptor, 850 nM.

For `CCOC(=O)N1CCN(C(=O)c2cc(NS(=O)(=O)c3ccc(C(C)C)cn3)c(Oc3ccccc3OC)c(OCCOC(=O)Nc3ccccn3)c2)CC1` [Example 36, ethyl 4-{3-(5-iso-propyl-pyridine-2-sulphonylamino)-4-(2-methoxy-phenoxy)-5-[2-(pyridin-2-ylcarbamoyloxy)-ethoxy]-benzoyl}-piperazine-1-carboxylate], the IC50 at human ETA receptors came out at 2 nM; at ETB receptor, 650 nM. Also, the Kb in the experiment with Isolated Rat Aorta Rings was 6.31 nM.

`COc1ccc(Cl)c(Oc2c(NS(=O)(=O)c3ccc(C(F)(F)F)cc3)cc(C(=O)Nc3ccccc3)cc2OCCO)c1` [Example 85, 4-(2-chloro-5-methoxy-phenoxy)-3-(2-hydroxy-ethoxy)-N-phenyl-5-(4-trifluoromethyl-benzenesulphonylamino)-benzamide]: the figures for the IC50 at human ETA receptors and on ETB receptor were 86000 nM and 20 nM, respectively.
